{
  "source": "patent US20220257636A1",
  "about": "“REDUCTION OF BONE RESORPTION, ESPECIALLY IN CHRONIC JOINT DISEASES” (TECHNISCHE UNIVERSITÄT DARMSTADT, priority 2019, published 2022)",
  "key": {"pre-osteoclasts": {"test_system": "pre-osteoclasts", "test": "Induction of osteoclast genesis, substances added to pre-osteoclasts", "assay_type": "cell-based, human", "conditions": "TLR7/8 agonist added to pre-osteoclasts", "experimental": "(§1) After 9 to 12 days the cells were fixed and tested for the osteoclast marker TRAP (tartrate-resistant acid phosphatase). TRAP positive cells which also comprised at least three nuclei were classified as osteoclasts and counted with the light microscope.\n(§2) Isolated human CD14^+ monocytes were treated with 1 μg/ml miR-574-5p oe sEVs or ScrC sEVs at different time points of the differentiation (FIG. 8A, 8B, 8C)."}, "CD14+ monocytes [1]": {"test_system": "CD14+ monocytes", "test": "Cytokine mRNA levels by RT-qPCR after stimulation of CD14+ monocytes", "assay_type": "cell-based, human", "experimental": "CD14^+ monocytes were stimulated with sEVs from the synovial fluid of ACPA positive patients with rheumatoid arthritis (4 μg/ml), with miR-574-5p oe sEVs (1 μg/ml) or with ScrC sEVs (1 μg/ml) for 4 hours each. Then the whole RNA was isolated and the mRNA levels of IL-23, IL-8, INFα, IL-1β and TNFα were analyzed with RT-qPCR. These cytokines are known for their influence onto the differentiation of osteoclasts (Amara-sekara D. S., Yun Ii., Kim S., Lee N. and Rho J. (2018). “Regulation of Osteoclast Differentiation by Cytokine Networks.” Immune Netw 18: • 1-18). The sequences of the primer pairs used are shown in the sequence protocol (SEQ ID NOs: 6-7 for INFα, SEQ ID NOs: 8-9 for IL-23, SEQ ID NOs: 10-11 for TNFα, SEQ ID NOs: 12-13 for IL-1β and SEQ ID NOs: 14-15 for IL-8). For the normalization of the cDNA amounts in different samples the levels of β-actin were used (primer pair: SEQ ID NOs: 16-17)."}, "CD14+ monocytes [2]": {"test_system": "CD14+ monocytes", "test": "Induction of osteoclast genesis (count of TRAP positive multinuclear cells), substances added to CD14+ monocytes", "assay_type": "cell-based, human", "text": "(§3) CD14^+ monocytes were isolated from PMBCs (peripheral blood mononuclear cells) of healthy donors and stimulated with M-CSF (recombinant human macrophage colony-stimulating factor), RANK-L (receptor activator of NF-κB ligand) and different concentrations of the isolated sEVs. With the sEVs isolated from the synovial fluid both freshly isolated monocytes and differentiated M2-like macrophages were stimulated (FIG. 2).\nas §1, §2\nThe influence of the miR-574-5p PNA AntagomiR which was coupled to CPP onto the osteoclast genesis was tested. This scheme has been adapted such that on day 1 the CPP-coupled miR-574-5p PNA AntagomiR (CPP-PNA) was added in concentrations of 10 μM or 20 μM. The negative control was conducted without any addition of CPP-PNA (0 μm CPP-PNA). […] Also for this experiment freshly isolated human monocytes were used. After the completion of the differentiation matured osteoclasts were visualized with the help of histologic staining (detection of tartrate-resistant acid phosphatases, TRAP). Subsequently, multinuclear TRAP positive cells are quantified under a light microscope."}, "[3]": {"test_system": "freshly isolated human monocytes", "quoted_text": "The cytotoxicity was tested with an MTT assay in which the eponymous dye MTT (3-(4,5-dimethylthiazol-2-yl)-2,5-diphenyltetrazoliumbromide) is used. As negative control a PNA with a sequence which was not complementary to miR-574-5p and which was also bound to CPP by means of the PEG linker was tested (SEQ ID NO: 30). The CPP-PNA construct of the negative control used can be illustrated as follows (from the N-terminus to the C-terminus): [sequence]-(eg1)-[sequence](K—NH2). The negative control differs from the above-described construct according to the present invention only with respect to the PNA sequence.\nThe cytotoxicity was tested on freshly isolated human monocytes."}, "M2-like macrophages": {"test_system": "M2-like macrophages", "test": "Induction of osteoclast genesis (count of TRAP positive multinuclear cells), substances added to M2-like macrophages", "assay_type": "cell-based, human", "conditions": "added with miR-574-5p to M2-like macrophages (FIG. 10D)", "text": "as §3, §1, §2"}, "TLR8": {"target": "T1, TLR8 (Homo sapiens, UniProt Q9NR97)", "T1 sequence (Q9NR97 27-1041)": "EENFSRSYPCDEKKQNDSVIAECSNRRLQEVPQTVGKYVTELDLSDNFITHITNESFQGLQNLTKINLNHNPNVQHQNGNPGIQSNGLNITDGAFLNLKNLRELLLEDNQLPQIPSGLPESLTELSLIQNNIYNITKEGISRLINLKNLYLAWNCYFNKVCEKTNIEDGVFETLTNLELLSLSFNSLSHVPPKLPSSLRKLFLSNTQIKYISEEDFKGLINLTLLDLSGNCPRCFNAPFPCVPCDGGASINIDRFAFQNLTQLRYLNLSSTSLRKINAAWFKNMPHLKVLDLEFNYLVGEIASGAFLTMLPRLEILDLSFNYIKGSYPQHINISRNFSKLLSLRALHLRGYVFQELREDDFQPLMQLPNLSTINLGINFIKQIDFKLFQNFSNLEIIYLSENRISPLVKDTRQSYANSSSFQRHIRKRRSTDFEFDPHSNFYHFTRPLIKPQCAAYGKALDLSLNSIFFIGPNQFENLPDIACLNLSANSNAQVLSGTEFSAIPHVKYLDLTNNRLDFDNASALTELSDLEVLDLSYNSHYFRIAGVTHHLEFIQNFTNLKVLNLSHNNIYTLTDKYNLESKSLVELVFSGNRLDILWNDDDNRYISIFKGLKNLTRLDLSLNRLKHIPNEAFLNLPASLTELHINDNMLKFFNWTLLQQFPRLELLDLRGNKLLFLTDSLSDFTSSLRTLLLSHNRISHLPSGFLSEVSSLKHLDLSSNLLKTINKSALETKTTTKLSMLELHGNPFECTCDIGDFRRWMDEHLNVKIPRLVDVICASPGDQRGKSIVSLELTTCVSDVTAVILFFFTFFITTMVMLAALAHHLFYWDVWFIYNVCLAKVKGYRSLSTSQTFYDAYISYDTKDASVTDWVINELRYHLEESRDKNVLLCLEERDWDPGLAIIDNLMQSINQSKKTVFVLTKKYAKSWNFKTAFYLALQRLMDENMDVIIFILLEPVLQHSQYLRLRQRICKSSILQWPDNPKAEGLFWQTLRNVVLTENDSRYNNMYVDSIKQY", "test": "MST (microscale thermophoresis) direct interaction with TLR8", "assay_type": "binding", "conditions": "Cy5-labeled miR", "text": "In the context of the present invention, a direct interaction of miR-574-5p with TLR8 was detected by means of MST (microscale thermophoresis); (Wienken C. J., Baaske P., Rothbauer U., Braun D. and Duhr S. (2010). “Protein-binding assays in biological liquids using microscale thermophoresis.” Nat Commun 1: 100). […] For the MST experiments Cy5-labeled miR-574-5p (SEQ ID NO: 18) and Cy5-labeled miR-16-5p (SEQ ID NO: 19) were used."}, "[4]": {"conditions": "10 ng/ml, compared with miR-574-5p oe sEVs (FIGS. 11E and 11F)"}},
  "note": "“Also recorded” adds a separate entry of the source. {Cy5} = Cyanine5 fluorescent label",
  "data": [
    {"compound": "CCOCc1nc2c(N)nc3ccccc3c2n1CC(C)(C)O", "note": "[R848]", "values": [
      {"measurement": "osteoclast genesis", "setting": "pre-osteoclasts", "result": "no significant increase"},
      {"measurement": "IL-23 mRNA", "setting": "CD14+ monocytes [1]; [4]", "result": "Comparable results"},
      {"measurement": "INFα mRNA", "setting": "CD14+ monocytes [1]; [4]", "result": "Comparable results"}
    ]},
    {"compound": "GRKKRWFRRRRMKWKK-(eg1)-ctcacacacacacactca(K—CONH2) (PEG linker, C-terminal amide; Cell Penetrating Peptide (CPP); Peptide Nucleic Acid (PNA) AntagomiR) [CPP-coupled miR-574-5p PNA AntagomiR]", "values": [
      {"measurement": "osteoclast genesis", "setting": "CD14+ monocytes [2]; added on day 1 at 10 μM or 20 μM, versus 0 μM, TRAP positive multinuclear cells", "result": "concentration-dependent reduction"},
      {"measurement": "cytotoxicity (MTT, viability)", "setting": "[3]", "result": "Neither in the case of the negative control (FIG. 13A) nor in the case of miR-574-5p PNA AntagomiR (FIG. 13B) a significant toxicity was observed"},
      {"measurement": "viability in comparison to the untreated control", "setting": "[3]", "result": "increased viability"}
    ]},
    {"compound": "GRKKRWFRRRRMKWKK-(eg1)-gctattaccttaacccag(K—NH2) (GCTATTACCTTAACCCAG; all peptide nucleic acid (PNA); N-terminal cell-penetrating peptide via eg1 linker, C-terminal lysine amide, further chemistry not fully specified) [negative control]", "values": [
      {"measurement": "cytotoxicity (MTT, viability)", "setting": "[3]", "result": "Neither in the case of the negative control (FIG. 13A) nor in the case of miR-574-5p PNA AntagomiR (FIG. 13B) a significant toxicity was observed"}
    ]},
    {"compound": "ODN 2087: TLR7/8 inhibitor oligonucleotide, SEQ ID NO: 24, MiltenyiBiotec (TCCTGAGCTTGAAGT; DNA, all phosphorothioate, methylation of C not given here)", "values": [
      {"measurement": "effect of inhibitor on the R848 effect on the number of osteoclasts", "setting": "CD14+ monocytes [2]; added with R848 (FIGS. 10E and 10F)", "result": "nullify the effect"},
      {"measurement": "effect of inhibitor on the miR-574-5p induced increase of the number of osteoclasts", "setting": "CD14+ monocytes [2]; added with miR-574-5p to CD14+ monocytes (FIG. 10C)", "result": "nullifies the effect"},
      {"measurement": "effect of inhibitor on the miR-574-5p induced increase of the number of osteoclasts", "setting": "M2-like macrophages", "result": "nullifies the effect"},
      {"measurement": "effect of inhibitor on the induced INFα and IL-23 mRNA increases", "setting": "CD14+ monocytes [1]; added to the stimulation with sEVs or R848", "result": "nullify the observed effects"}
    ]},
    {"compound": "miR-16-5p: microRNA; Cy5-labeled form (SEQ ID NO: 19) used for MST (UAGCAGCACGUAAAUAUUGGCG; RNA, 3' {Cy5}, backbone not given here)", "values": [
      {"measurement": "specific interaction with TLR8", "setting": "TLR8", "result": "specific interaction between TLR8 and miR-16-5p was not shown; also recorded: specific interaction between TLR8 and miR-16-5p was not observed"}
    ]},
    {"compound": "miR-574-5p: microRNA, SEQ ID NO: 4; Cy5-labeled form (SEQ ID NO: 18) used for MST (UGAGUGUGUGUGUGUGAGUGUGU; Cy5-labeled form used for MST, label position not given here; listed as Homo sapiens)", "values": [
      {"measurement": "stimulation of the osteoclast genesis", "setting": "CD14+ monocytes [2]; miR-574-5p alone, not in sEVs (FIG. 9)", "result": "Neither miR-574-5p alone, nor miR-574-5p in the presence of synthetic liposomal vehicles (Lipofectamine® 2000 (Thermo Fisher Scientific, Waltham, USA)) results in a stimulation"},
      {"measurement": "stimulation of the osteoclast genesis", "setting": "CD14+ monocytes [2]; miR-574-5p in the presence of synthetic liposomal vehicles (Lipofectamine 2000) (FIG. 9)", "result": "Neither miR-574-5p alone, nor miR-574-5p in the presence of synthetic liposomal vehicles (Lipofectamine® 2000 (Thermo Fisher Scientific, Waltham, USA)) results in a stimulation"},
      {"measurement": "Kd", "setting": "TLR8; read-out: constant of dissociation KD", "result": "30.8 ± 5.2", "unit": "nM"},
      {"measurement": "IL-1β mRNA level", "setting": "CD14+ monocytes [1]; any of the conditions tested", "result": "not influenced"},
      {"measurement": "IL-8 mRNA level", "setting": "CD14+ monocytes [1]; any of the conditions tested", "result": "not influenced"},
      {"measurement": "TNFα mRNA level", "setting": "CD14+ monocytes [1]; any of the conditions tested", "result": "not influenced"}
    ]}
  ]
}
